Reference: US4190646A, “Polypeptide compositions and methods” (Sloan-Kettering Institute for Cancer Research, priority 1979, dated 1980)
Where a SMILES comes first, the peptide text is derived from it.

What was measured:
[1] = activity compared with the basic pentapeptide of Example I, in Twomey solution; details: 1 μg/ml in 89% Twomey solution
[2] = tested on: neuromuscular transmission; experiment: neuromuscular transmission assessed by electromyography after injection; format: in vivo; details: mice, single injection of 10-100 μg peptide in saline intraperitoneally, 24 hours later
Method: To determine the effect of this peptide on neuromuscular transmission, mice were injected with 10-100 μg peptide in N saline intraperitoreally. Twenty-four hours later, neuromuscular transmission was assessed by electromyography as described in Lancet, Vol. 12, pps. 256-259, 1975.

CR^+ B cells = experiment: induction in vitro of CR+ B cell differentiation from CR- B cell precursors; format: cell-based, nu/nu mice; details: concentrations of 0.01 ng to 10 μg/ml
Method: To determine the activity and characteristics of the polypeptide, determinations were carried out on healthy 5-6 weeks nu/nu mice of both sexes, the mice being bred on a BALB/c background (thymocytes expressing Thy-1.2 surface antigen) and maintained under conventional conditions. For the antisera, anti Thy-1.2 sera were prepared in Thy-1 congenic mice.
For the induction in vitro of Thy-1^+ T cells or CR^+ B cell differentiation, the induction of thymocyte differentiation from prothymocytes in vitro was performed as described by Komuro and Boyse, (Lancet, 1, 740, 1973), using the acquisition of Thy-1.2 as a marker of T cell differentiation. The induction of CR^+ B cell differentiation from CR^- B cell precursors in vitro was performed under similar conditions using as the assay criterion, the capacity of CR^+ cells to bind sheep erythrocytes coated with subagglutinating quantities of rabbit antibody and nonlytic complement. Spleen cell populations from healthy nu/nu mice fractionated on discontinuous bovine serum albumin gradients were used as the source of both precursor types (Thy-1^- and CR^-) because they have few or no Thy-1^+ cells and low numbers of CR^+ cells.

Structure (SMILES) | maximum activity compared with the basic pentapeptide of Example I [1] | minimum activity compared with the basic pentapeptide of Example I [1] | neuromuscular transmission impairment by electromyography [2] | induction of differentiation of CR+ B cells (CR^+ B cells)
CC(C)[C@H](NC(=O)[C@H](CC(=O)O)NC(=O)[C@H](CCCCN)NC(=O)[C@@H](N)CCCNC(=N)N)C(=O)N[C@@H](Cc1ccc(O)cc1)C(N)=O [Example IV, H2 N-ARG-LYS-ASP-VAL-TYR-CONH2] (H-RKDVY-NH2) | 105% | 70% | – | –
CC(C)[C@H](NC(=O)[C@H](CC(=O)O)NC(=O)[C@H](CCCCN)NC(=O)[C@@H](N)CCCNC(=N)N)C(=O)N[C@@H](Cc1ccc(O)cc1)C(=O)O [Example I, H2 N-ARG-LYS-ASP-VAL-TYR-COOH] (H-RKDVY-OH) | – | – | detectable neuromuscular impairment | did not induce
